According to patent US10918713B2, “Epitopes from allergen proteins and methods and uses for immune response modulation” (LA JOLLA INSTITUTE FOR ALLERGY AND IMMUNOLOGY, priority 2012, dated 2021):
Where “and” joins values, the source holds several entries; their conditions need not be identical. Equal entries are not always repeated.

Columns and labels:
Type in all cases: cell-based, human
[1] = test system: PBMC from allergic donors; test: Dual ELISPOT, total IL-5 and IFN-γ response (SFC); conditions: sum of IFNg and IL-5
Protocol: (§1) Spots were counted by computer-assisted image analysis (Zeiss, KS-ELISPOT reader, Munich, Germany).
(§2) Each assay was performed in triplicate. The level of statistical significance was determined with a Student's t-test using the mean of triplicate values of the response against relevant pools or individual peptides versus the response against the DMSO control.

[2] = test system: PBMC from allergic donors; test: IL-5 ELISPOT with extract-stimulated short-term lines; conditions: positive donor/peptide response
Protocol: as §1, §2

[3] = test system: PBMC from allergic donors; test: IFN-γ ELISPOT with extract-stimulated short-term lines; conditions: positive donor/peptide response
Protocol: as §1, §2

Compound | Response (SFC/10^6) Total ([1]; each table line is one donor) | Response (SFC/10^6) IL-5 ([2]; each table line is one donor) | Response (SFC/10^6) IFNg ([3]; each table line is one donor) | Response (SFC/10^6) Total ([1]; one donor per table line) | Response (SFC/10^6) IL-5 ([2]; one donor per table line) | Response (SFC/10^6) IFNg ([3]; one donor per table line)
CC[C@H](C)[C@H](NC(=O)[C@@H](NC(=O)[C@H](CCC(=O)O)NC(=O)[C@H](CC(=O)O)NC(=O)[C@H](Cc1ccccc1)NC(=O)[C@@H](NC(=O)[C@@H](N)CC(N)=O)C(C)C)C(C)C)C(=O)N1CCC[C@H]1C(=O)N[C@H](C(=O)N[C@@H](C)C(=O)N[C@@H](Cc1ccccc1)C(=O)N[C@H](C(=O)N[C@H](C(=O)NCC(=O)N[C@@H](CCCCN)C(=O)O)C(C)C)[C@@H](C)O)[C@@H](C)O [3324.1141] | 2258 SFC/10^6 and 1083 SFC/10^6 | 2258 SFC/10^6 and 820 SFC/10^6 | 263 SFC/10^6 |  |  | 
3324.1104 (LGFFKKEALPQCAQV) |  |  |  | 627 SFC/10^6 | 573 SFC/10^6 | 53 SFC/10^6
3324.0842 (GGAINHLSDLSLDEF) |  |  |  | 773 SFC/10^6 | 603 SFC/10^6 | 170 SFC/10^6
3324.0099 (MKNIFMLTLFILIIT) | 57 SFC/10^6 and 77 SFC/10^6 | 57 SFC/10^6 | 77 SFC/10^6 |  |  | 
CC[C@H](C)[C@H](NC(=O)[C@@H](NC(=O)[C@H](CO)NC(=O)[C@H](C)N)C(C)C)C(=O)N1CCC[C@H]1C(=O)N1CCC[C@H]1C(=O)N[C@@H](C)C(=O)N[C@@H](CCCNC(=N)N)C(=O)N[C@@H](CC(C)C)C(=O)N[C@@H](Cc1ccccc1)C(=O)N[C@@H](CCCCN)C(=O)N[C@@H](C)C(=O)N[C@@H](Cc1ccccc1)C(=O)N[C@H](C(=O)N[C@@H](CC(C)C)C(=O)O)C(C)C [3324.1587] |  |  |  | 273 SFC/10^6 and 330 SFC/10^6 and 97 SFC/10^6 and 100 SFC/10^6 | 203 SFC/10^6 and 97 SFC/10^6 and 100 SFC/10^6 | 273 SFC/10^6 and 127 SFC/10^6
CC[C@H](C)[C@H](NC(=O)[C@H](CC(N)=O)NC(=O)[C@H](CC(C)C)NC(=O)[C@H](CC(N)=O)NC(=O)[C@H](CCCCN)NC(=O)[C@H](CO)NC(=O)[C@H](Cc1ccccc1)NC(=O)[C@@H](NC(=O)[C@@H](NC(=O)[C@H](Cc1c[nH]c2ccccc12)NC(=O)[C@H](CC(C)C)NC(=O)[C@H](CO)NC(=O)[C@H](CCCNC(=N)N)NC(=O)[C@@H](N)CCC(=O)O)[C@@H](C)CC)[C@@H](C)CC)C(=O)N[C@@H](CCCCN)C(=O)O [3324.0517] |  |  |  | 117 SFC/10^6 and 97 SFC/10^6 | 117 SFC/10^6 | 97 SFC/10^6
3337.0044 (IKLVKSSRPDCSEIP) | 90 SFC/10^6 and 233 SFC/10^6 | 233 SFC/10^6 | 90 SFC/10^6 |  |  | 
CC[C@H](C)[C@H](NC(=O)CNC(=O)[C@@H](N)CCCNC(=N)N)C(=O)N[C@@H](CCC(=O)O)C(=O)N[C@@H](Cc1ccc(O)cc1)C(=O)N[C@H](C(=O)N[C@@H](CCC(N)=O)C(=O)N[C@@H](Cc1c[nH]cn1)C(=O)N[C@@H](CC(N)=O)C(=O)NCC(=O)N[C@H](C(=O)N[C@H](C(=O)N[C@@H](CCC(N)=O)C(=O)N[C@@H](CCC(=O)O)C(=O)N[C@@H](CO)C(=O)O)C(C)C)C(C)C)[C@@H](C)CC [3324.0831] |  |  |  | 567 SFC/10^6 and 323 SFC/10^6 | 567 SFC/10^6 and 103 SFC/10^6 | 220 SFC/10^6
CC[C@H](C)[C@H](NC(=O)[C@@H]1CCCN1C(=O)[C@H](CC(N)=O)NC(=O)[C@H](C)NC(=O)[C@H](Cc1ccc(O)cc1)NC(=O)[C@@H](N)CCCNC(=N)N)C(=O)N[C@@H](C)C(=O)N[C@@H](Cc1ccccc1)C(=O)N[C@@H](Cc1ccccc1)C(=O)N[C@@H](CCCNC(=N)N)C(=O)N[C@@H](CCCCN)C(=O)N[C@@H](CCC(=O)O)C(=O)N1CCC[C@H]1C(=O)N[C@@H](CC(C)C)C(=O)N[C@@H](CCCCN)C(=O)O [3324.1138] |  |  |  | 2137 SFC/10^6 | 1697 SFC/10^6 | 440 SFC/10^6
3324.0660 (IPTAFKIGTTYTPEE) |  |  |  | 280 SFC/10^6 | 170 SFC/10^6 | 110 SFC/10^6
CC(C)[C@H](NC(=O)[C@H](C)NC(=O)[C@H](C)NC(=O)[C@H](CCCCN)NC(=O)[C@@H](N)Cc1ccccc1)C(=O)N[C@@H](C)C(=O)N[C@@H](C)C(=O)N[C@@H](C)C(=O)N[C@@H](C)C(=O)NCC(=O)N[C@@H](C)C(=O)N1CCC[C@H]1C(=O)N1CCC[C@H]1C(=O)N[C@@H](C)C(=O)N[C@@H](CC(=O)O)C(=O)O [3324.1575] | 138 SFC/10^6 and 327 SFC/10^6 and 230 SFC/10^6 | 138 SFC/10^6 and 327 SFC/10^6 | 230 SFC/10^6 |  |  | 
CSCC[C@H](N)C(=O)N[C@@H](CCCNC(=N)N)C(=O)N[C@@H](CC(N)=O)C(=O)N[C@H](C(=O)N[C@@H](Cc1ccccc1)C(=O)N[C@@H](CC(=O)O)C(=O)N[C@@H](CC(=O)O)C(=O)N[C@H](C(=O)N[C@H](C(=O)N1CCC[C@H]1C(=O)N[C@@H](C)C(=O)N[C@@H](CC(=O)O)C(=O)N[C@@H](Cc1ccccc1)C(=O)N[C@@H](CCCCN)C(=O)N[C@H](C(=O)O)C(C)C)C(C)C)C(C)C)C(C)C [3337.0030] | 213 SFC/10^6 and 133 SFC/10^6 and 907 SFC/10^6 | 110 SFC/10^6 and 133 SFC/10^6 and 447 SFC/10^6 | 103 SFC/10^6 and 460 SFC/10^6 |  |  | 
CC[C@H](C)[C@H](NC(=O)[C@H](CCC(=O)O)NC(=O)[C@H](Cc1c[nH]c2ccccc12)NC(=O)[C@@H](NC(=O)CNC(=O)[C@@H](N)CC(=O)O)C(C)C)C(=O)N[C@@H](CCCCN)C(=O)N[C@@H](CO)C(=O)N[C@@H](CC(=O)O)C(=O)N[C@@H](CCCCN)C(=O)N1CCC[C@H]1C(=O)N[C@@H](CC(C)C)C(=O)N[C@@H](CCCCN)C(=O)NCC(=O)N1CCC[C@H]1C(=O)O [3324.1139] | 577 SFC/10^6 and 287 SFC/10^6 | 577 SFC/10^6 and 287 SFC/10^6 |  | 103 SFC/10^6 and 167 SFC/10^6 | 83 SFC/10^6 | 103 SFC/10^6 and 83 SFC/10^6
CC(C)C[C@H](NC(=O)[C@H](Cc1ccc(O)cc1)NC(=O)[C@H](C)NC(=O)[C@H](CO)NC(=O)[C@H](CCC(=O)O)NC(=O)[C@@H](NC(=O)[C@H](C)NC(=O)[C@H](C)NC(=O)[C@@H](NC(=O)CNC(=O)[C@@H](N)CO)C(C)C)[C@@H](C)O)C(=O)N[C@@H](C)C(=O)N[C@@H](Cc1ccc(O)cc1)C(=O)N[C@@H](CCCNC(=N)N)C(=O)N[C@@H](CC(N)=O)C(=O)O [3324.0829] |  |  |  | 687 SFC/10^6 and 403 SFC/10^6 | 347 SFC/10^6 and 167 SFC/10^6 | 340 SFC/10^6 and 237 SFC/10^6
3324.0834 (KAFNKSYATFEDEEA) |  |  |  | 2267 SFC/10^6 | 703 SFC/10^6 | 1563 SFC/10^6
